US6818618B1, “Inhibition of smooth muscle cell migration by Tenascin-C peptides” (Cedars-Sinai Medical Center, priority 1998, dated 2004)
Entries after “also recorded” stand apart in the source; their conditions may differ.

Columns and labels:
adult rat aortic SMCs = test: Adhesion assay: adult aortic SMCs on wells coated with the substance; assay type: cell-based; settings: for adhesion of adult SMCs to coated substrate: 60 min, crystal violet absorbance
Protocol: (§1) Adult Aortic SMCs were cultured as described (12). Newborn (9-day old) aortic SMCs were obtained from Dr. Stephen, M. Schwartz, of University of Washington, and subsequently cultured (13). Briefly, rat aortic SMCs were isolated by enzymatic digestion of rat aorta (Sprague-Dawley, 2 months old, 270 g). Cells were grown in DMEM/F12 media (Gibco) supplemented with 10% fetal bovine serum (Gibco). After reaching confluence, cells (between 3rd and 6th passages) were used for adhesion studies.
(§2) Microtiter plates (Falcon, Becton Dickinson, Oxnard, Calif.) were coated with the respective substrate for one (1) hour at 37° C. Nonspecific sites were blocked with 1 mg/ml BSA in PBS. […] After incubation for 60 min. at 37° C., nonadherent cells were removed with gentle washing with PBS. The number of attached cells were quantified by staining cells with 0.2% crystal violet in 20% methanol, lysing with 1% SDS, and measuring the absorbance at 550 nm (14).
Interaction between aortic SMCs and Tenascin-C was assessed by an adhesion assay. […] In FIG. 1, 96-well plates were coated with solutions containing intact fibronectin (FN), vitronectin (VN) or Tenascin-C (TN) and incubated with either adult or newborn aortic SMCs. Adhesion is measured by determining absorbance of attached cells after staining with crystal violet. Values shown are from a representative experiment in which triplicates are plotted as mean±SEM.

newborn aortic SMCs = test: Adhesion assay: newborn SMCs on wells coated with the substance; assay type: cell-based, rat; settings: for adhesion activity relative to the Fbg-L domain: peptide coated at 10 μg/ml on tissue culture dishes; for level of adhesion of newborn SMCs to coated substrate: wells coated with 10 μg/ml substrate
Protocol: as §1, §2
To determine the concentration for the adhesion assays, microtiter plates were coated with increasing concentrations (1-100 μg/ml) of substrates, and the number of adherent cells was quantified. Adhesion of cells to Tenascin-C reached saturation levels at coating concentrations of 10 μg/ml (not shown). Therefore, all the subsequent adhesion assays were performed by coating the wells with a 10 μg/ml substrate.
The active domain of Tenascin-C was mapped using recombinant proteins corresponding to full-length Fbg-L and FN-L domains as well as FN-L subdomains 6-8, A-D, A1A2, and D. The ability of these domains, or subdomains, to interact with newborn SMCs was determined by an adhesion assay, and the results are shown in FIG. 5. In FIG. 5, a microtiter plate was coated with BSA, fibronectin (FN), intact Tenascin-C (TN), and the recombinant proteins corresponding to: the Fbg-L domain (Fbg-L), the entire FN-L repeats (AII), the constitutively spliced repeats 6-8, the alternatively spliced A-D, A1A2, and D domains. An adhesion assay was performed with newborn SMCs. Values shown are from a representative experiment in which triplicates are plotted±SEM.
The ability of the synthetic peptides to directly interact with newborn cells was determined by an adhesion assay. […] In FIG. 8, 96-well plates were coated with solutions containing BSA (C), fibronectin (FN), Tenascin-C (TN), the fibrinogen-like domain (Fbg-L), and synthetic peptides at a concentration of 10 μg/ml in PBS. An adhesion assay was performed with newborn rat SMCs. Tissue culture plates were coated with increasing concentrations of peptides from 0.1 to 10 μg/ml, and the adhesion of newborn cells was measured. Values shown are from a representative experiment in which triplicates are plotted as mean±SEM.

[1] = tested on: newborn rat SMCs migration on Tenascin-C substrate; test: Migration assay (modified Boyden's chamber) on Tenascin-C substrate; assay type: cell-based
Protocol: (§3) Cell migration was measured by a modification of the Boyden's chamber method using microchemotaxis chambers (Neuro Probe Inc.). Polycarbonate filters were coated with 10 μg/ml of substrates overnight at 4° C. Newborn rat SMCs were suspended at a concentration of 10^5 cells/ml in serum-free DMEM supplemented with 1 mg/ml BSA. A volume of 50 μl of cell suspension was placed in the upper chamber, and 30 μl of 10% bovine calf serum in DMEM was placed in the lower chamber. In some experiments, cells were suspended in DMEM supplemented with 0.1 μM of the fibrinogen-like domain (Fbg-L) or 1 μM of peptide VIII before addition to the upper chamber. The chamber was incubated at 37° C. under 5% CO2 in air for 4 hours. The filter was removed, and the cells on the upper side of the filter were scraped off. The SMCs that had migrated to the lower side of the filter were fixed in methanol, stained with Diff-Quick staining solution (Baxter) and counted under a microscope.
(§4) To map the active domain of Tenascin-C that is involved in cell migration, the ability of the recombinant domains to block SMCs migration on a Tenascin-C substrate was determined. […] In FIG. 9, cell migration was measured by a modification of Boyden's chamber. […] Migrating cells were fixed and counted under a microscope. Nine high power fields (HPF) were counted for each triplicate. […]

[2] = tested on: newborn rat SMCs migration on collagen substrate; test: Migration assay (modified Boyden's chamber) on collagen substrate; assay type: cell-based; settings: Fbg-L or 1 μM peptide VIII in upper chamber
Protocol: as §3, §4

[3] = tested on: adhesion of newborn SMCs to Tenascin-C; test: Adhesion of newborn SMCs to Tenascin-C-coated wells in the presence of soluble agents; assay type: cell-based, rat; settings: for effect on adhesion of SMCs to Tenascin-C (summary statement): concentration not given; for inhibition of attachment of SMCs to Tenascin-C: 0.1 mg/ml GRGDS peptide, higher concentrations did not significantly alter adhesion
Protocol: as §2
(§5) It has been shown that the interaction of some cells with Tenascin-C is mediated by the RGD motif (20, 23). Therefore, an adhesion assay was used to determine the role of RGD in the interaction between Tenascin-C and SMCs. The specificity of the adhesion was determined by coating the wells with the recombinant 10th-type III repeat of fibronectin (24). In FIG. 2, 96-well plates were coated with either BSA (BSA), Tenascin-C (TN), or the recombinant 10th-type III repeat of fibronectin (10III) as described for FIG. 1. Newborn SMCs were detached, washed once in adhesion buffer and added to various concentrations of the peptide GRGDS. Cells and peptides were then preincubated for 30 min. prior to plating. The values shown are the mean±SEM of triplicate samples. Nonspecific binding to control wells coated with BSA was not subtracted from each value.
(§6) In FIG. 3, 96-well plates were coated with solutions containing intact fibronectin (FN), the recombinant 10th-type III repeat of fibronectin (FN10III), or Tenascin-C (TN). […] The number of attached cells was quantified by a colorimeter. Values shown are from a representative experiment in which triplicates are plotted as mean±SEM.
(§7) In FIG. 4, 96-well plates were coated with either Tenascin-C (TN) or the recombinant tenth type III repeat of fibronectin (10III) as described for FIG. 1. […] Values shown are from the mean±SD of triplicate samples.
To distinguish between these possibilities, the recombinant FN-L proteins were labeled with ^125I, and their ability to coat the tissue culture dishes was compared to the Fbg-L domain. […] To determine whether the binding to tissue culture dishes had influenced the activity of the recombinant proteins, the ability of soluble Fbg-L or FN-L domains and subdomains to inhibit the interaction between intact Tenascin-C and SMCs was examined. […] In FIG. 6, 96-well plates were coated with fibronectin (FN), the recombinant tenth type III repeat of fibronectin (10III), or an intact Tenascin-C molecule (TN). Newborn SMCs were incubated for 15 min. at 37° C. with a solution of 200 μg/ml of a recombinant Fbg-L domain, the entire FN-L domain (FN-L), or the alternatively spliced A-D repeats (AD). […] Adhesion was measured as described above. Values shown are from representative experiments in which triplicates are plotted±SEM.
(§8) In FIG. 8(B), 96-well plates were coated with BSA, intact Tenascin-C (TN) or the fibrinogen-like domain (Fbg-L), and adhesion of newborn cells was measured in the presence of 1 μM synthetic peptides.

[4] = tested on: adhesion of newborn SMCs to the recombinant 10th-type III repeat of fibronectin; test: Adhesion of newborn SMCs to the recombinant 10th-type III repeat of fibronectin in the presence of soluble agents; assay type: cell-based, rat
Protocol: as §2, §5, §6, §7
To distinguish between these possibilities, the recombinant FN-L proteins were labeled with ^125I, and their ability to coat the tissue culture dishes was compared to the Fbg-L domain. […] Adhesion was measured as described above. […]

[5] = tested on: adhesion of newborn SMCs to the Fbg-L domain; test: Adhesion of newborn SMCs to Fbg-L domain-coated wells in the presence of soluble agents; assay type: cell-based, rat; settings: EDTA or cations; not shown
Protocol: as §2, §8

[6] = tested on: adhesion of SMCs to peptide VIII; test: Adhesion of SMCs to peptide VIII-coated wells in the presence of soluble agents; assay type: cell-based, rat; settings: EDTA or cations; not shown
Protocol: as §2

[7] = increasing cation concentration
[8] = various concentrations of cation

Molecule: fibronectin
- adhesion of adult SMCs to coated substrate (adult rat aortic SMCs): avidly adhered

Molecule: peptide VIII: 30 amino acid synthetic peptide located near the C-terminal part of the Fbg-L domain of Tenascin-C, Seq. Id. No. 8 (WYRNCHRVNLMGRYGDNNHSQGVNWFHWKG)
- adhesion activity relative to the Fbg-L domain (newborn aortic SMCs): 80%
- level of adhesion of newborn SMCs to coated substrate (newborn aortic SMCs): strongly promoting newborn cell adhesion
- inhibition of SMCs chemotaxis on Tenascin-C substrate ([1]; 0.1 μM Fbg-L or 1 μM peptide VIII in upper chamber, 4 hours): ~70%
- effect on migration of SMCs on collagen substrate [2]: did not interfere
- effect on adhesion of SMCs to Tenascin-C (summary statement) [3]: completely blocked

Molecule: Tenascin-C: intact Tenascin-C purified from conditioned media of BHK cells overexpressing Tenascin-C
- coating concentration at which cell adhesion reached saturation levels (newborn aortic SMCs; increasing coating concentrations): 10 µg/mL
- adhesion of newborn SMCs to Tenascin-C relative to adult cells (newborn aortic SMCs; newborn vs adult SMCs, coated wells): 3-4 times higher
- level of adhesion of newborn SMCs to coated substrate (newborn aortic SMCs): comparable to the attachment levels observed with fibronectin; also recorded: high compared to the fibronectin
- SMCs chemotaxis on coated substrate compared to BSA ([1]; filters coated with 10 μg/ml substrate): stimulated
- adhesion of adult SMCs to Tenascin-C relative to attachment to the adhesive proteins (fibronectin, vitronectin) (adult rat aortic SMCs; coated wells): 3-4 times lower

Molecule: GRGDS
- inhibition of attachment of newborn SMCs to the recombinant fibronectin fragment ([4]; 0.1 mg/ml peptide, 30 min preincubation): complete inhibition
- inhibition of attachment of SMCs to Tenascin-C [3]: approximately 30%
- inhibition of attachment of SMCs to Tenascin-C ([3]; listed as RGD peptide): 30%

Molecule: GRFDS
- effect of inactive control peptide on adhesion (compared with GRGDS) ([3]; not shown): no effect

Molecule: IX: 30 amino acid synthetic peptide from the C-terminal part of the Fbg-L domain of Tenascin-C, Seq. Id. No. 9 (FHWKGHEHSIQFAEMKLRPSNFRNLEGRRKRA)
- adhesion activity relative to the Fbg-L domain (newborn aortic SMCs): 30%

Molecule: [Mg+2] [Mg^2+]
- cation concentration giving maximal cell adhesion to the recombinant fibronectin fragment [4, 7]: 5 to 10 mM
- effect of cation on newborn SMCs adhesion to the recombinant fibronectin fragment [4, 8]: increased
- effect on adhesion of SMCs to the Fbg-L domain [5]: promoted
- effect on adhesion to peptide VIII [6]: promoted
- effect on adhesion of SMCs to Tenascin-C (summary statement) [3]: promoted
- increase potential for the interaction between newborn SMCs and Tenascin-C ([3]; in the presence of Mg^2+): three-fold
- cation concentration giving maximal cell adhesion to Tenascin-C [3, 7]: 5 to 10 mM
- effect of cation on newborn SMCs adhesion to Tenascin-C [3, 8]: increased

B1: vitronectin: vitronectin matrix protein (protein, UniProt P04004 20-478, looked up)
Vitronectin: DQESCKGRCTEGFNVDKKCQCDELCSYYQSCCTDYTAECKPQVTRGDVFTMPEDEYTVYDDGEEKNNATVHEQVGGPSLTSDLQAQSKGNPEQTPVLKPEEEAPAPEVGASKPEGIDSRPETLHPGRPQPPAEEELCSGKPFDAFTDLKNGSLFAFRGQYCYELDEKAVRPGYPKLIRDVWGIEGPIDAAFTRINCQGKTYLFKGSQYWRFEDGVLDPDYPRNISDGFDGIPDNVDAALALPAHSYSGRERVYFFKGKQYWEYQFQHQPSQEECEGSSLSAVFEHFAMMQRDSWEDIFELLFWGRTSAGTRQPQFISRDWHGVPGQVDAAMAGRIYISGMAPRPSLAKKQRFRHRNRKGYRSQRGHSRGRNQNSRRPSRATWLSLFSSEESNLGANNYDDYRMDWLVPATCEPIQSVFFFSGDKYYRVNLRTRRVDTVDPPYPRSIAQYWLGCPAPGHL
- adhesion of adult SMCs to coated substrate (adult rat aortic SMCs): avidly adhered
